PubChem BioAssay (NCI)
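Results reflect a 48-hour exposure of cells in 96-well plates to compound at five concentrations. Here, GI50 denotes the concentration required for 50% inhibition of growth. TGI: concentration producing complete growth inhibition.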

Tests used:
Assay in all cases: NCI-60 cell line screen, 48 h
786-0 renal = tested on: 786-0 renal
CAKI-1 renal = tested on: CAKI-1 renal
DU-145 prostate = tested on: DU-145 prostate
HS 578T breast = tested on: HS 578T breast
MCF7 breast = tested on: MCF7 breast
MOLT-4 leukemia = tested on: MOLT-4 leukemia
SF-539 CNS = tested on: SF-539 CNS
M14 melanoma = tested on: M14 melanoma
NCI-H522 lung = tested on: NCI-H522 lung
SR leukemia = tested on: SR leukemia

## CC1SC(c2ccc(OCc3ccccc3)cc2)N(NC(=O)C(O)(c2ccccc2)c2ccccc2)C1=O (stereo not drawn)
786-0 renal
  GI50: 1.98 µM
  TGI: 4.64 µM
CAKI-1 renal
  GI50: 2.49 µM
  TGI: 8.6 µM
DU-145 prostate
  GI50: 3.55 µM
  TGI: 13.6 µM
HS 578T breast
  GI50: 1.94 µM
  TGI: 7.15 µM
MCF7 breast
  GI50: 4.37 µM
  TGI: 22.4 µM
MOLT-4 leukemia
  GI50: 2.02 µM
  TGI: 5.58 µM
SF-539 CNS
  GI50: 14 µM
  TGI: 42.6 µM

## COC(=O)N1C=Cc2c(c(C)c3c([nH]c4ccccc43)c2C)C1C (stereo not drawn)
786-0 renal
  TGI: 26.5 µM
CAKI-1 renal
  TGI: 34.5 µM
M14 melanoma
  TGI: 71.1 µM
MOLT-4 leukemia
  TGI: 43.3 µM
SF-539 CNS
  TGI: 35.3 µM

## Cc1c(Cl)ccc2[s+]snc12
786-0 renal
  TGI: 36.2 µM
CAKI-1 renal
  TGI: > 100 µM
M14 melanoma
  TGI: 77.8 µM
MOLT-4 leukemia
  TGI: 95.1 µM
NCI-H522 lung
  TGI: 41.5 µM
SF-539 CNS
  TGI: 44.6 µM
SR leukemia
  TGI: > 100 µM

## C/C(=N\NC(N)=S)c1ccc(Oc2ccccc2)cc1
786-0 renal
  TGI: 14.5 µM
M14 melanoma
  TGI: 25.8 µM
MOLT-4 leukemia
  TGI: 17.4 µM
SF-539 CNS
  TGI: 17.6 µM

## CC(C)CC(=O)O[C@H]1C(=O)O[C@@H]2C[C@H]3[C@H](C)C(=O)C(O[C@@H]4O[C@H](CO)[C@@H](O)[C@H](O)[C@H]4O)=C[C@]3(C)[C@H]3[C@@H](O)[C@H](O)[C@]4(C(=O)O)OC[C@]32[C@@H]14
786-0 renal
  GI50: > 100 µM
  TGI: > 100 µM
DU-145 prostate
  GI50: > 100 µM
  TGI: > 100 µM
HS 578T breast
  GI50: 39.8 µM
  TGI: > 100 µM
M14 melanoma
  TGI: > 100 µM
MCF7 breast
  GI50: 28 µM
  TGI: > 100 µM
MOLT-4 leukemia
  GI50: 18.9 µM
  TGI: > 100 µM
SF-539 CNS
  GI50: 20.5 µM
  TGI: 53.3 µM
SR leukemia
  GI50: 33.6 µM
  TGI: > 100 µM

## O=C1C(=C2C(=O)c3ccccc3[N+]2=O)N([O-])c2ccccc21
786-0 renal
  TGI: 46.1 µM
M14 melanoma
  TGI: 43.7 µM
MOLT-4 leukemia
  TGI: 48.7 µM
SF-539 CNS
  TGI: 47.7 µM
SR leukemia
  TGI: 79.4 µM

## O=c1ccn([C@@H]2C[C@H](CO)CS(=O)C2)c(=O)[nH]1 (stereo partly drawn)
786-0 renal
  TGI: > 100 µM
CAKI-1 renal
  TGI: > 100 µM
M14 melanoma
  TGI: > 100 µM
MOLT-4 leukemia
  TGI: > 100 µM
NCI-H522 lung
  TGI: > 100 µM
SF-539 CNS
  TGI: > 100 µM

## CCn1c(O)c(C(=O)Nc2cccs2)c(=O)n(CC)c1=S
786-0 renal
  TGI: 42.2 µM
CAKI-1 renal
  TGI: 75.9 µM
M14 melanoma
  TGI: 43.8 µM
MOLT-4 leukemia
  TGI: 59.8 µM
NCI-H522 lung
  TGI: 38.4 µM
SF-539 CNS
  TGI: 33.1 µM
SR leukemia
  TGI: > 100 µM

## CCCCCCCCCCCCCCCCCCCCCCC(=O)N[C@H]1CCc2cc(OC)c(OC)c(OC)c2-c2ccc(SC)c(=O)cc21
786-0 renal
  TGI: > 100 µM
CAKI-1 renal
  TGI: > 100 µM
M14 melanoma
  TGI: 90.4 µM
MOLT-4 leukemia
  TGI: > 100 µM
NCI-H522 lung
  TGI: 33.1 µM
SF-539 CNS
  TGI: 41.3 µM
SR leukemia
  TGI: 81.9 µM

## O=C(/C=C/c1c[nH]c2ccccc12)c1ccccc1O
786-0 renal
  TGI: 25.5 µM
DU-145 prostate
  TGI: 23.9 µM
HS 578T breast
  TGI: 66.7 µM
M14 melanoma
  TGI: 27 µM
MCF7 breast
  TGI: 18.7 µM
MOLT-4 leukemia
  TGI: 37 µM
NCI-H522 lung
  TGI: 23 µM
SF-539 CNS
  TGI: 25.1 µM

## CCn1nc(C#Cc2c(C)ccc3c(Nc4ccc(Cl)cc4)nccc23)c2c(N)ncnc21
786-0 renal
  GI50: 3.66 µM
  TGI: > 100 µM
CAKI-1 renal
  GI50: 4.78 µM
  TGI: > 100 µM
DU-145 prostate
  GI50: 5.74 µM
  TGI: > 100 µM
M14 melanoma
  GI50: 2.89 µM
  TGI: > 100 µM
MCF7 breast
  GI50: 2.49 µM
  TGI: > 100 µM
MOLT-4 leukemia
  GI50: 4.32 µM
  TGI: > 100 µM
NCI-H522 lung
  GI50: 2.39 µM
  TGI: 86.9 µM
SR leukemia
  GI50: 1.01 µM
  TGI: > 100 µM

## O=C(N=Nc1c(O)[nH]c2c(Cl)cc(Cl)cc12)C(=O)Nc1cccc(C(F)(F)F)c1
786-0 renal
  TGI: > 100 µM
CAKI-1 renal
  TGI: > 100 µM
HS 578T breast
  TGI: > 100 µM
M14 melanoma
  TGI: > 100 µM
MCF7 breast
  TGI: > 100 µM
MOLT-4 leukemia
  TGI: > 100 µM
SF-539 CNS
  TGI: > 100 µM
SR leukemia
  TGI: > 100 µM

## COc1ccc2c(c1)c(-c1nc(-c3cn(C)c4ncccc34)cs1)cn2CCCCN1CCCCC1
786-0 renal
  GI50: 1.61 µM
  TGI: 3.06 µM
DU-145 prostate
  GI50: 1.74 µM
  TGI: 3.12 µM

## C[C@H](O)CCC(=O)c1ccoc1
786-0 renal
  TGI: > 100 µM
CAKI-1 renal
  TGI: > 100 µM
M14 melanoma
  TGI: > 100 µM
MOLT-4 leukemia
  TGI: > 100 µM
NCI-H522 lung
  TGI: > 100 µM
SF-539 CNS
  TGI: > 100 µM
SR leukemia
  TGI: > 100 µM

## O=C(CC1(O)C(=O)Nc2ccc(Br)cc21)c1cccc([N+](=O)[O-])c1 (stereo not drawn)
786-0 renal
  TGI: > 100 µM
CAKI-1 renal
  TGI: > 100 µM
M14 melanoma
  TGI: > 100 µM
MOLT-4 leukemia
  TGI: 70.1 µM
NCI-H522 lung
  TGI: 67.2 µM

## OC1(c2ccccc2)c2ccccc2N(c2ccccc2)c2ccc(Cl)cc21 (stereo not drawn)
786-0 renal
  GI50: 0.253 µM
  TGI: 0.68 µM
CAKI-1 renal
  GI50: 0.257 µM
  TGI: 0.779 µM
DU-145 prostate
  GI50: 0.412 µM
  TGI: 1.39 µM
HS 578T breast
  GI50: 0.332 µM
  TGI: 1.81 µM
M14 melanoma
  GI50: 0.249 µM
  TGI: 0.694 µM
MCF7 breast
  GI50: 0.299 µM
  TGI: 0.894 µM
MOLT-4 leukemia
  GI50: 0.294 µM
  TGI: 1.25 µM
NCI-H522 lung
  GI50: 0.161 µM
  TGI: 0.433 µM
SF-539 CNS
  GI50: 0.236 µM
  TGI: 0.683 µM

## C=CN(C(=O)N1CCN(c2cc3c(cc2F)c(=O)c(C(=O)O)cn3C2CC2)CC1)c1nc(-c2ccc(C)cc2)cs1
786-0 renal
  GI50: 0.333 µM
  TGI: 10.5 µM
DU-145 prostate
  GI50: 3.8 µM
  TGI: > 100 µM
HS 578T breast
  GI50: 3.45 µM
  TGI: 21.3 µM
MCF7 breast
  GI50: 2.88 µM
  TGI: 11.5 µM
NCI-H522 lung
  GI50: 2.27 µM
  TGI: 6.23 µM
SR leukemia
  GI50: 2.15 µM
  TGI: > 100 µM

## O=C(c1ccccc1)N1CCc2c([nH]c3ccccc23)C1
786-0 renal
  TGI: > 100 µM
CAKI-1 renal
  TGI: 86.4 µM
M14 melanoma
  TGI: > 100 µM
MOLT-4 leukemia
  TGI: 64.4 µM
NCI-H522 lung
  TGI: 64.8 µM
SF-539 CNS
  TGI: > 100 µM
SR leukemia
  TGI: > 100 µM

## CCc1cccc(CC)c1NC1=CC(=O)C(=O)c2ccccc21
786-0 renal
  TGI: 44.9 µM
CAKI-1 renal
  TGI: 44.3 µM
M14 melanoma
  TGI: 27.2 µM
MOLT-4 leukemia
  TGI: > 100 µM
NCI-H522 lung
  TGI: 28.3 µM
SF-539 CNS
  TGI: 35.4 µM
SR leukemia
  TGI: > 100 µM

## C=C1C(=O)O[C@H]2[C@H]1CC/C(COC(=O)NCc1ccc(Cn3c(=O)sn(CCCI)c3=O)cc1)=C\CC[C@@]1(C)O[C@@H]21
786-0 renal
  GI50: 1.68 µM
  TGI: 3.71 µM
CAKI-1 renal
  GI50: 1.7 µM
  TGI: 3.29 µM
DU-145 prostate
  GI50: 1.74 µM
  TGI: 3.16 µM
HS 578T breast
  GI50: 3.17 µM
  TGI: 14.5 µM
M14 melanoma
  GI50: 1.74 µM
  TGI: 4.69 µM
MCF7 breast
  GI50: 1.41 µM
  TGI: 3.24 µM
MOLT-4 leukemia
  GI50: 0.294 µM
  TGI: 3.19 µM
NCI-H522 lung
  GI50: 1.07 µM
  TGI: 2.39 µM
SF-539 CNS
  GI50: 1.71 µM
  TGI: 3.34 µM

## CN(C)c1ccc(-c2cc(-c3cccc(NS(C)(=O)=O)c3)nc(N)c2C#N)cc1
786-0 renal
  GI50: 0.0491 µM
  TGI: 13.5 µM
CAKI-1 renal
  GI50: 0.0348 µM
  TGI: 15.1 µM
HS 578T breast
  GI50: 0.0292 µM
  TGI: 49.2 µM
M14 melanoma
  GI50: 0.0262 µM
  TGI: 13.4 µM
MCF7 breast
  GI50: 0.238 µM
  TGI: 17.9 µM
MOLT-4 leukemia
  GI50: 0.0822 µM
  TGI: > 58.4 µM
NCI-H522 lung
  GI50: < 0.013 µM
  TGI: 1.21 µM
SF-539 CNS
  GI50: 0.0279 µM
  TGI: 0.173 µM
SR leukemia
  GI50: 0.0359 µM
  TGI: 26.7 µM
